Data: PubChem BioAssay AID1845204 (Molecular Pharmacology Branch, DTP, NCI, 2023)

Test system: HSSY-II tumor spheroid viability
Experiment: Anticancer human tumor HSSY-II cell line growth inhibition;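 note: spheroids exposed to compounds for seven days before reading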;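 for viability, T/C: percent of DMSO vehicle control viability so 100% = untreated level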
Settings: spheroids with HUVEC and MSC; for IC50: curve of first compound; for viability, T/C: stronger effect = lower value; active = viability on the fitted dose curve at most 10% of control; inactive = the rest
Outline: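 Single agents and combinations were tested on spheroids built from tumor cells plus HUVEC and hMSC, at half-log dilutions starting at or near clinical Cmax, else 10 microM; final DMSO 0.25% (v/v).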

[1] = second compound 0.003 µM, first compound 0.0316 µM
[2] = second compound 0.003 µM, first compound 0.1 µM
[3] = second compound 0.003 µM, first compound 0.316 µM
[4] = second compound 0.003 µM, first compound 1 µM
[5] = second compound 0.003 µM, first compound 3.16 µM
[6] = second compound 0.003 µM, first compound 10 µM
[7] = second compound 0.00949 µM, first compound 0.0316 µM
[8] = second compound 0.00949 µM, first compound 0.1 µM
[9] = second compound 0.00949 µM, first compound 0.316 µM
[10] = second compound 0.00949 µM, first compound 1 µM
[11] = second compound 0.00949 µM, first compound 3.16 µM
[12] = second compound 0.00949 µM, first compound 10 µM
[13] = second compound 0.03 µM, first compound 0.0316 µM
[14] = second compound 0.03 µM, first compound 0.1 µM
[15] = second compound 0.03 µM, first compound 0.316 µM
[16] = second compound 0.03 µM, first compound 1 µM
[17] = second compound 0.03 µM, first compound 3.16 µM
[18] = second compound 0.03 µM, first compound 10 µM
[19] = second compound 0.0949 µM, first compound 0.0316 µM
[20] = second compound 0.0949 µM, first compound 0.1 µM
[21] = second compound 0.0949 µM, first compound 0.316 µM
[22] = second compound 0.0949 µM, first compound 1 µM
[23] = second compound 0.0949 µM, first compound 3.16 µM
[24] = second compound 0.0949 µM, first compound 10 µM
[25] = second compound 0.3 µM, first compound 0.0316 µM
[26] = second compound 0.3 µM, first compound 0.1 µM
[27] = second compound 0.3 µM, first compound 0.316 µM
[28] = second compound 0.3 µM, first compound 1 µM
[29] = second compound 0.3 µM, first compound 3.16 µM
[30] = second compound 0.3 µM, first compound 10 µM

[2H]c1nc(C)nc([2H])c1-c1cc(NC[C@@H](C)c2cccc3c(C(=O)NC)ccnc23)ncn1 + CC[C@@]1(O)C(=O)OCc2c1cc1n(c2=O)Cc2cc3c(CN(C)C)c(O)ccc3nc2-1
active: viability, T/C [25] 6.74% | viability, T/C [26] 7.54% | viability, T/C [27] 7.42% | viability, T/C [28] 6.87% | viability, T/C [29] 7.23% | viability, T/C [30] 8.83%
> 10 µM: IC50 (second compound 0.003 µM) | IC50 (second compound 0.00949 µM)
< 0.0316 µM: IC50 (second compound 0.03 µM) | IC50 (second compound 0.0949 µM) | IC50 (second compound 0.3 µM)
inactive: viability, T/C [1] 89.6% | viability, T/C [2] 93.9% | viability, T/C [3] 90.5% | viability, T/C [4] 96.5% | viability, T/C [5] 87.9% | viability, T/C [6] 78.7% | viability, T/C [7] 62% | viability, T/C [8] 64.5% | viability, T/C [9] 61.5% | viability, T/C [10] 63.9% | viability, T/C [11] 58% | viability, T/C [12] 53.9% | viability, T/C [13] 14.2% | viability, T/C [14] 13.6% | viability, T/C [15] 11.1% | viability, T/C [16] 13.1% | viability, T/C [17] 14% | viability, T/C [18] 16.3% | viability, T/C [19] 11% | viability, T/C [20] 11.4% | viability, T/C [21] 9.48% | viability, T/C [22] 10.8% | viability, T/C [23] 11.6% | viability, T/C [24] 12%

COc1ccc([C@@H](O)c2cc(-c3ncnc4cc(N5CCOCC5)ccc34)c(F)cc2Cl)nn1 + Cn1nnc2c(C(N)=O)ncn2c1=O
1.91 µM: IC50 (second compound 10 µM)
2.23 µM: IC50 (second compound 1 µM)
1.06 µM: IC50 (second compound 100 µM)
1.92 µM: IC50 (second compound 3.16 µM)
1.88 µM: IC50 (second compound 31.6 µM)
inactive: viability, T/C (second compound 1 µM, first compound 0.0316 µM) 102% | viability, T/C (second compound 1 µM, first compound 0.1 µM) 95.8% | viability, T/C (second compound 1 µM, first compound 0.316 µM) 90.8% | viability, T/C (second compound 1 µM, first compound 1 µM) 64.5% | viability, T/C (second compound 1 µM, first compound 3.16 µM) 44% | viability, T/C (second compound 1 µM, first compound 10 µM) 13.5% | viability, T/C (second compound 3.16 µM, first compound 0.0316 µM) 100% | viability, T/C (second compound 3.16 µM, first compound 0.1 µM) 94.3% | viability, T/C (second compound 3.16 µM, first compound 0.316 µM) 88.7% | viability, T/C (second compound 3.16 µM, first compound 1 µM) 63.5% | viability, T/C (second compound 3.16 µM, first compound 3.16 µM) 39.4% | viability, T/C (second compound 3.16 µM, first compound 10 µM) 16.8% | viability, T/C (second compound 10 µM, first compound 0.0316 µM) 94% | viability, T/C (second compound 10 µM, first compound 0.1 µM) 92.1% | viability, T/C (second compound 10 µM, first compound 0.316 µM) 89.6% | viability, T/C (second compound 10 µM, first compound 1 µM) 66.6% | viability, T/C (second compound 10 µM, first compound 3.16 µM) 36.8% | viability, T/C (second compound 10 µM, first compound 10 µM) 15.9% | viability, T/C (second compound 31.6 µM, first compound 0.0316 µM) 98% | viability, T/C (second compound 31.6 µM, first compound 0.1 µM) 98.2% | viability, T/C (second compound 31.6 µM, first compound 0.316 µM) 81.5% | viability, T/C (second compound 31.6 µM, first compound 1 µM) 64.8% | viability, T/C (second compound 31.6 µM, first compound 3.16 µM) 38.5% | viability, T/C (second compound 31.6 µM, first compound 10 µM) 20.6% | viability, T/C (second compound 100 µM, first compound 0.0316 µM) 83.2% | viability, T/C (second compound 100 µM, first compound 0.1 µM) 83% | viability, T/C (second compound 100 µM, first compound 0.316 µM) 70.7% | viability, T/C (second compound 100 µM, first compound 1 µM) 48% | viability, T/C (second compound 100 µM, first compound 3.16 µM) 32.3% | viability, T/C (second compound 100 µM, first compound 10 µM) 12.8%

CC(C)n1c(=O)n(C)c2cnc3cc(F)c(-c4ccc(OCCCN5CCCCC5)nc4)cc3c21 + CC[C@@]1(O)C(=O)OCc2c1cc1n(c2=O)Cc2cc3c(CN(C)C)c(O)ccc3nc2-1
< 0.0316 µM: IC50 (second compound 0.003 µM) | IC50 (second compound 0.00949 µM) | IC50 (second compound 0.03 µM) | IC50 (second compound 0.0949 µM) | IC50 (second compound 0.3 µM)
inactive: viability, T/C [1] 48% | viability, T/C [2] 45.2% | viability, T/C [3] 51.9% | viability, T/C [4] 40.6% | viability, T/C [5] 14% | viability, T/C [6] 10.2% | viability, T/C [7] 15% | viability, T/C [8] 14.7% | viability, T/C [9] 14.3% | viability, T/C [10] 13% | viability, T/C [11] 9.79% | viability, T/C [13] 10.1% | viability, T/C [19] 9.24%
active: viability, T/C [12] 7.58% | viability, T/C [14] 9.85% | viability, T/C [15] 9.61% | viability, T/C [16] 7.8% | viability, T/C [17] 4.59% | viability, T/C [18] 2.72% | viability, T/C [20] 8.61% | viability, T/C [21] 8.35% | viability, T/C [22] 6.09% | viability, T/C [23] 4.16% | viability, T/C [24] 2.59% | viability, T/C [25] 6.62% | viability, T/C [26] 6.23% | viability, T/C [27] 5.88% | viability, T/C [28] 5.84% | viability, T/C [29] 4.56% | viability, T/C [30] 3.48%
